Laboratory results as given in ChEMBL document CHEMBL1132541, “New quaternary ammonium oxicam derivatives targeted toward cartilage: synthesis, pharmacokinetic studies, and antiinflammatory potency” (J Med Chem, 1999).

Tested on: Rattus norvegicus
Experiment: Maximal blood concentration after oral administration of a 30 umol/kg dose of compound
Type: ADME, organism-based
Design: dose 30 umol/kg, route oral
Conditions: in vivo

CN1C(C(=O)Nc2cccc[n+]2C)=C(O)c2ccccc2S1(=O)=O.[I-] gave a Cmax of 5.5 nmol/g.

CN1C(C(=O)Nc2ccccn2)=C(O)c2ccccc2S1(=O)=O [PIROXICAM] showed a Cmax of 47.8 nmol/g.
